This note sets out measurements from patent publication US20190248834A1, “ENDOMORPHIN-2, TETRAPEPTIDE DERIVATIVES THEREOF, AND USES THEREOF” (priority 2016, published 2019).

Non-standard residues stand in square brackets, D forms with d. pGlu = O=C1CC[C@@H](C(=O)O)N1

Holding throughout (type): in vivo, human
In one experiment the test system is neck and shoulder pain. The experiment in a line: Example 16: analgesic effect on neck and shoulder pain, topical. The conditions noted are these: 0.5% (w/v) in WEP442, topical. On the procedure:
The subject could not move their neck without having a high level of pain and discomfort. The subject topically applied a composition containing 0.5% (w/v) N-Ac-Tyr-Pro-Phe-Phe-NH2(SEQ ID NO: 23) in WEP442 to the affected area of the skin. […] The pain relief lasted for more than 2 hours.

The test system of another experiment is sunburn pain. Nature of the experiment: Example 30: analgesic effect on sunburn pain, topical. The conditions noted are these: 1% (w/v) in WEP442, topical. An excerpt: A subject with severe sunburn of their anterior legs the day after exposure to sunlight without sunscreen protection, topically applied a composition containing 1% (w/v) of N-Ac-Tyr-Pro-Phe-Phe-NH2 (SEQ ID NO: 23) in WEP442 to both legs.

The test system of another experiment is hangover headache. The experiment in a line: Example 74: analgesic effect on severe hangover headache, topical. The conditions noted are these: 0.5% (w/v) in WEP442, topical. From the text:
They were provided a solution composition containing 0.5% (w/v) of N-Ac-Tyr-Pro-Phe-Phe-NH2 (SEQ ID NO: 23) in WEP442 which they topically applied to the neck, peripheral scalp, and entire face and forehead.

The test system of another experiment is sprain of the left ankle. Nature of the experiment: Example 21: analgesic effect on ankle sprain, topical. An excerpt:
A subject, suffered a sprain of the left ankle after stepping on a stone while hiking, twisting the ankle inwardly. Ten days later, after wearing an elastic ankle support daily, pain from the injury persisted. The subject topically applied an anhydrous composition containing 0.7% (w/v) N-Ac-Tyr-Pro-Phe-Phe-NH2 (SEQ ID NO: 23) in EP73, formulated as described in Example 2. […] Upon arising the next morning, the subject experienced mild ankle pain, whereupon the composition was again applied. […] The subject was discomfort free thereafter.

Experiment [1] concerns severe pain on the left hip. The experiment in a line: Example 89: analgesic effect on hip pain, topical. The conditions noted are these: 1% (w/v) in WEP442, topical. From the text:
A subject had severe lumber stenosis (lower back arthritis) for about 3 years caused by a fall from a ladder 7 years earlier. The subject had been pain free from lower back arthritis due to weekly acupuncture treatment, usually at 10 AM every Tuesday. On one Friday evening, the subject suddenly developed severe pain on the left hip and the pain persisted.

The subject of the next experiment is painful tendonitis. The experiment in a line: Example 50: topical treatment of painful tendonitis of right wrist and right thumb. The conditions noted are these: 1% (w/v) in WEP442, topical. An excerpt:
A subject with painful tendonitis after playing tennis topically applied a composition containing 1% (w/v) of N-Pg-Tyr-Pro-Phe-Phe-NH2 (SEQ ID NO: 44) in WEP442 to the right thumb and to the entire wrist.

The test system of experiment [2] is headache. Nature of the experiment: Example 44: analgesic effect on headache, topical. An excerpt: A subject, experienced a headache that began on the right temporofrontal area. Within about a half hour the headache pain area expanded to include the left temporofrontal area and both orbital areas. The intensity of pain increased simultaneously to a degree that caused them to remove themself from their sedentary occupation. Available to them was a composition containing 1% (w/v) of N-Pg-Tyr-Pro-Phe-Phe-NH2 (SEQ ID NO: 44) in WEP442, which they topically applied to all the above areas, keeping their eyes closed until the lids dried. Pain relief was detected after about 5 minutes, at which time a second application of the solution was made. Within another 5 minutes, pain relief was substantial, allowing them to return to their occupation.

Experiment [3] has as its system post-operative knee soreness. The experiment in a line: Example 70: analgesic effect on post-operative tenderness and soreness of knee, topical. The conditions noted are these: 0.6% (w/v) in WEP442, topical. An excerpt: A person underwent surgical repair of a bulging meniscus of the right knee, after which there was substantial tenderness and soreness, particularly so upon their walking, which they were advised to do a few hours daily during the recovery period. Skin glue had been used for wound closure, which allowed for topical applications of a composition containing 0.6% (w/v) of N-Pg-Tyr-Pro-Phe-Phe-NH2 (SEQ ID NO: 44) in WEP442 to the entire knee including 5 surgical wound sites. […] Repeated topical applications provided freedom of movement throughout the day with negligible discomfort.

For the next experiment, the system named is stress headaches. The experiment in a line: Example 69: analgesic effect on repeating stress headaches, topical. The conditions noted are these: 0.5% (w/v) in WEP442, topical, 5-6 headaches over 3 weeks. From the text: A person had repeated stress headaches for several months. Such headaches had been relieved, or partially relieved, by over-the-counter medication.

Experiment [4] relates to severe osteoarthritis of both knees. Nature of the experiment: Example 17: analgesic effect on osteoarthritic knees, sublingual powder. The conditions noted are these: powder 50 mg under the tongue. On the procedure: A subject had severe osteoarthritis of both knees with pain, inflammation and edema for four years. The subject underwent prior therapy, including intra-articular injections of corticosteroids and hyaluronic acid as well as celecoxib (Celebrex), administered orally (200 mg) twice daily. Such therapy provided only mild transitory relief of knee pain and edema, and edema of the lower legs.
The subject administered N-Pg-Tyr-Pro-Phe-Phe-NH2 (SEQ ID NO: 44) powder (50 mg) under the tongue (sublingually), which dissolved in saliva and absorbed slowly for about 30 minutes. […] The analgesic effect lasted for about 2 hours. The analgesic effect was judged to be about 4+ by clinical evaluation.
Under the same conditions, N-Pa-Tyr-Pro-Phe-Phe-NH2 (SEQ ID NO: 64) powder provided an analgesic effect of about 3+ as judged by clinical evaluation. Also under the same conditions, N-Ac-Tyr-Pro-Phe-Phe-NH2 (SEQ ID NO: 23) powder provided an analgesic effect of about 3+ as judged by clinical evaluation. Repeated application of the tetrapeptide derivatives provided 4+ efficacy as judged by clinical evaluation.

The test system of experiment [5] is headache. Nature of the experiment: Example 52: analgesic effect on headache. The conditions noted are these: 1% (w/v) in WEP442, topical. From the text: At 5:30 p.m., the headache pain was becoming more intense, at which time they topically applied a composition containing 1% (w/v) of N-Pg-Tyr-Pro-Phe-Phe-NH2 (SEQ ID NO: 44) in WEP442 to the entire forehead and temporal areas. […] There was no recurrence of symptoms over the next 3 days of follow-up time.

Setting [6] is: 0.7% (w/v) in EP73, first topical application.
[7] abbreviates: 0.7% (w/v) in EP73, second application.

With `CC(=O)N[C@@H](Cc1ccc(O)cc1)C(=O)N1CCC[C@H]1C(=O)N[C@@H](Cc1ccccc1)C(=O)N[C@@H](Cc1ccccc1)C(N)=O` [N-Ac-Tyr-Pro-Phe-Phe-NH2], in the experiment on neck and shoulder pain, the “duration of pain relief” value is on record as “more than 2 hours”; the “relief of pain in shoulder and neck” value was “approximately 90%”; the “time to pain relief” value was at most 2 min. Further, in the experiment on sunburn pain, the “duration of pain relief” value is “about 3 hours” and the pain relief result is listed as “completely relieved almost instantly”. The headache relief entry with hangover headache is on record as “almost immediate, complete, relief of their aching head”. For the same compound, the pain relief entry with sprain of the left ankle (0.7% (w/v) in EP73, application next morning, within about 5 minutes) is “no discomfort was discernible”. For the same compound, in the experiment with sprain of the left ankle (setting [6]), the pain relief entry is given as “relieved almost completely” and the “time to pain relief” value was 3 to 4 min. Besides, in the experiment on sprain of the left ankle (setting [7]), the pain relief result is on record as “complete relief of all discomfort” and the “time to pain relief” value was at most 5 min. In experiment [1], the analgesic effect grade is 4+ (4+ (90-100%): complete relief or eradication of pain for more than 4 hours), the pain relief entry is “the pain disappeared”, the “time to pain relief” value is given as “about 2 minutes” and the “time without return of pain” value is over 12 h.
“N-Pg-Tyr-Pro-Phe-Phe-NH2 ([pGlu]YPFF-NH2; SMILES NC(=O)[C@H](Cc1ccccc1)NC(=O)[C@H](Cc1ccccc1)NC(=O)[C@@H]1CCCN1C(=O)[C@H](Cc1ccc(O)cc1)NC(=O)[C@@H]1CCC(=O)N1)”: in the experiment with painful tendonitis, the pain relief result is “all pain and discomfort from any hand movements were gone”; the “time to pain relief” value is 5 to 10 min; the “time without return of pain (follow up period)” value was at least 24 h. The pain relief result with headache [2] (1% (w/v) in WEP442, after second application) is reported as “Total relief of pain”. Further, the “time to detected pain relief” value in the experiment on headache [2] (1% (w/v) in WEP442, first topical application) is “about 5 minutes”. In the experiment on headache [2] (1% (w/v) in WEP442, topical), the recurrence entry was “no recurrence of pain”. In [3], the “duration of pain relief” value lay in the range of 2 to 3 h and the pain relief result is “rapid, almost complete, relief of pain sensations”. In addition, the headache relief result in the experiment on stress headaches is “completely relieved almost immediately”. For the same compound, in experiment [4], the “analgesic effect by clinical evaluation” value is 4+ (4+ (90-100%): complete relief or eradication of pain for more than 4 hours), the “duration of analgesic effect” value was “about 2 hours”, the pain relief result is recorded as “the pain disappeared” and the “time to pain relief” value is at most 20 min. Moreover, in the experiment with headache [5], the pain relief result is “all pain, and heavy feelings were completely gone”; the “time to pain relief” value is at most 30 s; the “time without recurrence of symptoms (follow-up)” value was at least 3 days.
